Converted amounts (≈) assume the structure as drawn. Where two headings read alike, the source gives them in different places.
Key:
[1] = system: A. baumannii KW1 strains with aminoglycoside resistance plasmids; assay: Etest MIC of aminoglycosides, aminoglycoside-modifying enzyme or 16S rRNA methylase (Table 19); type: cell-based, Acinetobacter baumannii; settings: for effects on the MIC / resistance: production of 16S rRNA methylase, ArmA; for effects on the MIC: production of aminoglycoside-modifying enzymes
Description: DNA fragments of the resistance genes along with their flanking regions were amplified from clinical plasmids via PCR with specific primer pairs. The resulting PCR fragments were digested and then cloned into the plasmid pYMAb5 or pYMAb5Tc. The resulting plasmids were then transformed into A. baumannii KW1 via electroporation.
(§1) The MICs of antibiotics were determined using the Etest (Biodisk AB, Sweden) according to the manufacturer's instructions. The MICs from the Etest, which fall between standard two-fold dilutions, were rounded up to the next highest two-fold value. The MICs of ceftazidime and cefotaxime against K. pneumoniae NVT1001 harbouring the pACYC177 plasmid with blaOXA-48 were further determined using a broth microdilution test according to the recommendations of the CLSI,^25 and the results were interpreted according to the breakpoints established by the CLSI in 2017.^25 Meanwhile, due to the lack of CLSI breakpoints in 2016 and 2017, the results for cephalothin were interpreted according to the breakpoints established by the CLSI in 2015,^26 and the results for moxifloxacin were interpreted according to the breakpoints established by the EUCAST in 2017.^27

[2] = system: K. pneumoniae NVT1001 strains with aminoglycoside resistance plasmids; assay: Etest MIC of aminoglycosides, aminoglycoside-modifying enzyme or 16S rRNA methylase (Table 13); type: cell-based, Klebsiella pneumoniae; settings: for effects on the MIC / resistance: production of 16S rRNA methylase, ArmA and RmtB
Description: DNA fragments of the resistance genes along with their flanking regions were amplified from clinical plasmids via PCR with specific primer pairs. The resulting PCR fragments were digested and then cloned into the plasmid pACYC177 or pACYC184. The resulting plasmids were then transformed into K. pneumoniae strain NVT1001 via electroporation. The recombinant bacteria were plated onto LB agar plates containing kanamycin (50 mg/L) or chloramphenicol (50 mg/L), and the presence of the cloned gene was confirmed via PCR and DNA sequencing.
as §1

[3] = system: K. pneumoniae NVT1001 and its ΔompK35/36 and/or ΔramR mutants; assay: Etest MIC, OmpK35/36 loss and AcrAB-TolC overexpression (ΔramR) strains (Table 6); type: cell-based, Klebsiella pneumoniae; settings: Klebsiella pneumoniae
Description: as §1

[4] = KW1 with AAC(3)-IIa on pYMAb5Tc
[5] = KW1 with ANT(2”)-Ia on pYMAb5Tc
[6] = KW1 with ANT(3”)-Ia on pYMAb5Tc
[7] = KW1 with APH(3')-Ia on pYMAb5Tc
[8] = KW1 with APH(3')-VIa on pYMAb5Tc
[9] = KW1 with shuttle vector pYMAb5Tc
[10] = NVT1001, no supplemental plasmid
[11] = NVT1001 with AAC(3)-IId on pACYC184
[12] = NVT1001 with AAC(3)-IVa on pACYC184
[13] = NVT1001 with AAC(6′)-Ib-cr on pACYC184
[14] = NVT1001 with ANT(2″)-Ia on pACYC184
[15] = NVT1001 with ANT(3″)-Ia on pACYC184
[16] = NVT1001 with APH(3′)-IIa on pACYC184
[17] = NVT1001 with APH(3′)-Ia on pACYC184
[18] = NVT1001 with StrA-StrB on pACYC184
[19] = ΔramRΔ35/36, ΔramRΔompK35/36 mutant

Compound	MIC ([1]; KW1, no supplemental plasmid)	MIC [1, 4]	MIC [1, 5]	MIC [1, 6]	MIC [1, 7]	MIC [1, 8]	MIC ([1]; KW1 with ArmA on pYMAb5Tc)	MIC [1, 9]	MIC [2, 10]	MIC [2, 11]	MIC [2, 12]	MIC [2, 13]	MIC [2, 14]	MIC [2, 15]	MIC [2, 16]	MIC [2, 17]	MIC ([2]; NVT1001 with ArmA on pACYC184)	MIC ([2]; NVT1001 with RmtB on pACYC184)	MIC [2, 18]	MIC ([3]; WT, NVT1001, read-out: MIC)	further results
NCC[C@H](O)C(=O)N[C@@H]1C[C@H](N)[C@@H](O[C@H]2O[C@H](CN)[C@@H](O)[C@H](O)[C@H]2O)[C@H](O)[C@H]1O[C@H]1O[C@H](CO)[C@@H](O)[C@H](N)[C@H]1O [AMK]	2 µg/mL	2 µg/mL	2 µg/mL	2 µg/mL	2 µg/mL	2 µg/mL	>256 µg/mL	2 µg/mL	2 µg/mL	2 µg/mL	2 µg/mL	8 µg/mL	2 µg/mL	2 µg/mL	2 µg/mL	2 µg/mL	>256 µg/mL	>256 µg/mL	2 µg/mL		
CN[C@@H]1[C@H](O)[C@H](NC)[C@H]2O[C@@]3(O)C(=O)C[C@@H](C)O[C@H]3O[C@@H]2[C@H]1O [Spectinomycin]																				16 µg/mL (≈ 48.1 µM)	MIC ([3]; Δ35, ΔompK35 mutant): 16 µg/mL (≈ 48.1 µM); MIC ([3]; Δ35/36, ΔompK35/36 mutant): 16 µg/mL (≈ 48.1 µM); MIC ([3]; Δ36, ΔompK36 mutant): 16 µg/mL (≈ 48.1 µM); MIC ([3]; ΔramR mutant): 16 µg/mL (≈ 48.1 µM); MIC ([3]; ΔramRΔ35, ΔramRΔompK35 mutant): 16 µg/mL (≈ 48.1 µM); MIC [3, 19]: 16 µg/mL (≈ 48.1 µM); MIC ([3]; ΔramRΔ36, ΔramRΔompK36 mutant): 16 µg/mL (≈ 48.1 µM); effects on the MIC / resistance [1]: not associated with increase effects; effects on the MIC / resistance [2]: not associated with observable effects
NC[C@@H]1O[C@@H](O[C@H]2[C@H](O)[C@@H](O[C@H]3O[C@H](CO)[C@@H](O)[C@H](N)[C@H]3O)[C@H](N)C[C@@H]2N)[C@@H](O)[C@H](O)[C@H]1O [KAN]	2 µg/mL	2 µg/mL	4 µg/mL	2 µg/mL	16 µg/mL	16 µg/mL	>256 µg/mL	2 µg/mL	2 µg/mL	4 µg/mL	8 µg/mL	32 µg/mL	>256 µg/mL	2 µg/mL	>256 µg/mL	>256 µg/mL	>256 µg/mL	>256 µg/mL	2 µg/mL		
CN[C@@H]1[C@H](O[C@H]2[C@H](O[C@H]3[C@H](O)[C@@H](O)[C@H](N=C(N)N)[C@@H](O)[C@@H]3N=C(N)N)O[C@@H](C)[C@]2(O)C=O)O[C@@H](CO)[C@H](O)[C@H]1O [STR]	12 µg/mL	8 µg/mL	8 µg/mL	8 µg/mL	12 µg/mL	12 µg/mL	8 µg/mL	12 µg/mL	2 µg/mL	2 µg/mL	2 µg/mL	2 µg/mL	2 µg/mL	16 µg/mL	2 µg/mL	2 µg/mL	2 µg/mL	2 µg/mL	1024 µg/mL		
[H]/N=C(/N)N[C@H]1[C@H](O)[C@@H](O)[C@H](O[C@@H]2O[C@@H](C)[C@](O)(C=O)[C@H]2O[C@@H]2O[C@@H](CO)[C@H](O)[C@@H](O)[C@@H]2NC)[C@@H](N/C(N)=N\[H])[C@@H]1O [Streptomycin]																				2 µg/mL (≈ 3.44 µM)	MIC ([3]; Δ35, ΔompK35 mutant): 4 µg/mL (≈ 6.88 µM); MIC ([3]; Δ35/36, ΔompK35/36 mutant): 4 µg/mL (≈ 6.88 µM); MIC ([3]; Δ36, ΔompK36 mutant): 4 µg/mL (≈ 6.88 µM); MIC ([3]; ΔramR mutant): 2 µg/mL (≈ 3.44 µM); MIC ([3]; ΔramRΔ35, ΔramRΔompK35 mutant): 2 µg/mL (≈ 3.44 µM); MIC [3, 19]: 4 µg/mL (≈ 6.88 µM); MIC ([3]; ΔramRΔ36, ΔramRΔompK36 mutant): 4 µg/mL (≈ 6.88 µM); effects on the MIC / resistance [1]: not associated with increase effects; effects on the MIC [1]: no increase effects; effects on the MIC / resistance [2]: not associated with observable effects
NCC[C@H](O)C(=O)N[C@@H]1C[C@H](N)[C@@H](O[C@H]2O[C@H](CN)[C@@H](O)[C@H](O)[C@H]2O)[C@H](O)[C@H]1O[C@H]1O[C@H](CO)[C@@H](O)[C@H](N)[C@H]1O [Amikacin]																				2 µg/mL (≈ 3.42 µM)	MIC ([3]; Δ35, ΔompK35 mutant): 2 µg/mL (≈ 3.42 µM); MIC ([3]; Δ35/36, ΔompK35/36 mutant): 2 µg/mL (≈ 3.42 µM); MIC ([3]; Δ36, ΔompK36 mutant): 2 µg/mL (≈ 3.42 µM); MIC ([3]; ΔramR mutant): 2 µg/mL (≈ 3.42 µM); MIC ([3]; ΔramRΔ35, ΔramRΔompK35 mutant): 2 µg/mL (≈ 3.42 µM); MIC [3, 19]: 2 µg/mL (≈ 3.42 µM); MIC ([3]; ΔramRΔ36, ΔramRΔompK36 mutant): 2 µg/mL (≈ 3.42 µM); effects on the MIC [1]: no increase effects; susceptibility category ([2]; strains with different aminoglycoside-modifying enzymes): susceptible
NC[C@H]1O[C@H](O[C@H]2[C@H](O)[C@@H](O[C@H]3O[C@H](CO)[C@@H](O)[C@H](N)[C@H]3O)[C@H](N)C[C@@H]2N)[C@H](N)C[C@@H]1O [TOB]	0.5 µg/mL	0.5 µg/mL	2 µg/mL	0.5 µg/mL	0.5 µg/mL	0.5 µg/mL	>256 µg/mL	0.5 µg/mL	0.5 µg/mL	4 µg/mL	>256 µg/mL	8 µg/mL	64 µg/mL	0.5 µg/mL	0.5 µg/mL	1 µg/mL	>256 µg/mL	>256 µg/mL	0.5 µg/mL		
CN[C@@H]1[C@H](O)[C@H](NC)[C@H]2O[C@@]3(O)C(=O)C[C@@H](C)O[C@H]3O[C@@H]2[C@H]1O [SPT]	24 µg/mL	24 µg/mL	24 µg/mL	192 µg/mL	24 µg/mL	24 µg/mL	24 µg/mL	24 µg/mL	16 µg/mL	16 µg/mL	16 µg/mL	16 µg/mL	16 µg/mL	>1024 µg/mL	16 µg/mL	16 µg/mL	16 µg/mL	16 µg/mL	16 µg/mL		
CCN[C@@H]1C[C@H](N)[C@@H](O[C@H]2OC(CN)=CC[C@H]2N)[C@H](O)[C@H]1O[C@H]1OC[C@](C)(O)[C@H](NC)[C@H]1O [NET]	1.5 µg/mL	1.5 µg/mL	1.5 µg/mL	1.5 µg/mL	1.5 µg/mL	1.5 µg/mL	>256 µg/mL	1.5 µg/mL	0.5 µg/mL	4 µg/mL	64 µg/mL	8 µg/mL	1 µg/mL	0.5 µg/mL	0.5 µg/mL	0.5 µg/mL	>256 µg/mL	>256 µg/mL	0.5 µg/mL		
